For assay [1], the target named is T1, HCV NS5B (Hepatitis C virus genotype 1b, UniProt Q9WMX2).
T1 construct: The protein was expressed with an 18 amino acid C-terminal truncation to enhance the solubility; made in house; host or cells: E. coli BL21(DE3)
The assay is described as follows: HCV NS5B RdRp enzyme assay. Particulars: HCV NS5B RdRp genotype 1b; standard or modified assay not specified. The class given is biochemical. Here is the method:
HCV NS5B RdRp cloning, expression, and purification. The cDNA encoding the NS5B protein of HCV, genotype 1b, was cloned into the pET21a expression vector. The protein was expressed with an 18 amino acid C-terminal truncation to enhance the solubility. The E. coli competent cell line BL21(DE3) was used for expression of the protein. Cultures were grown at 37° C. for ˜4 hours until the cultures reached an optical density of 2.0 at 600 nm. The cultures were cooled to 20° C. and induced with 1 mM IPTG. Fresh ampicillin was added to a final concentration of 50 μg/ml and the cells were grown overnight at 20° C.
Cell pellets (3 L) were lysed for purification to yield 15-24 mgs of purified NS5B. The lysis buffer consisted of 20 mM Tris-HCl, pH 7.4, 500 mM NaCl, 0.5% triton X-100, 1 mM DTT, 1 mM EDTA, 20% glycerol, 0.5 mg/ml lysozyme, 10 mM MgCl2, 15 ug/ml deoxyribonuclease I, and Complete TM protease inhibitor tablets (Roche). After addition of the lysis buffer, frozen cell pellets were resuspended using a tissue homogenizer. To reduce the viscosity of the sample, aliquots of the lysate were sonicated on ice using a microtip attached to a Branson sonicator. The sonicated lysate was centrifuged at 100,000×g for 1 hr at 4° C. and filtered through a 0.2 μm filter unit (Corning).
The protein was purified using three sequential chromatography steps: Heparin sepharose CL-6B, polyU sepharose 4B, and Hitrap SP sepharose (Pharmacia). The chromatography buffers were identical to the lysis buffer but contained no lysozyme, deoxyribonuclease I, MgCl2 or protease inhibitor and the NaCl concentration of the buffer was adjusted according to the requirements for charging the protein onto the column. Each column was eluted with a NaCl gradient which varied in length from 5-50 column volumes depending on the column type. After the final chromatography step, the resulting purity of the enzyme is >90% based on SDS-PAGE analysis. The enzyme was aliquoted and stored at −80° C.
Standard HCV NS5B RdRp enzyme assay. HCV RdRp genotype 1b assays were run in a final volume of 60 μl in 96 well plates (Costar 3912). The assay buffer is composed of 20 mM Hepes, pH 7.5, 2.5 mM KCl, 2.5 mM MgCl2, 1 mM DTT, 1.6 U RNAse inhibitor (Promega N2515), 0.1 mg/ml BSA (Promega R3961), and 2% glycerol. All compounds were serially diluted (3-fold) in DMSO and diluted further in water such that the final concentration of DMSO in the assay was 2%. HCV RdRp genotype 1b enzyme was used at a final concentration of 28 nM. A polyA template was used at 6 nM, and a biotinylated oligo-dT12 primer was used at 180 nM final concentration. Template was obtained commercially (Amersham 27-4110). Biotinylated primer was prepared by Sigma Genosys. 3H-UTP was used at 0.6 μCi (0.29 μM total UTP). Reactions were initiated by the addition of enzyme, incubated at 30° C. for 60 min, and stopped by adding 25 μl of 50 mM EDTA containing SPA beads (4 μg/μl, Amersham RPNQ 0007). Plates were read on a Packard Top Count NXT after >1 hr incubation at room temperature.
Modified HCV NS5B RdRp enzyme assay. A modified enzyme assay was performed essentially as described for the standard enzyme assay except for the following: The biotinylated oligo dT12 primer was precaptured on streptavidin-coated SPA beads by mixing primer and beads in assay buffer and incubating at room temperature for one hour. Unbound primer was removed after centrifugation. The primer-bound beads were resuspended in 20 mM Hepes buffer, pH 7.5 and used in the assay at final concentrations of 20 nM primer and 0.67 μg/μl beads. Order of addition in the assay: enzyme (14 nM) was added to diluted compound followed by the addition of a mixture of template (0.2 nM), 3H-UTP (0.6 μCi, 0.29 μM), and primer-bound beads, to initiate the reaction; concentrations given are final. Reactions were allowed to proceed for 4 hours at 30° C.
IC50 values for compounds were determined using seven different [I]. […]

In assay [2] the test system is HCV replicon. The assay is described as follows: HCV replicon assay (FRET / luciferase reporter). Format: cell-based, HCV (HUH-7 cells). Particulars: Hepatitis C virus; HCV replicon cells. The source says:
FRET Assay Preparation. To perform the HCV FRET screening assay, 96-well cell culture plates were used. The FRET peptide (Anaspec, Inc.) (Taliani et al., Anal. Biochem. 1996, 240, 60-67) contains a fluorescence donor, EDANS, near one end of the peptide and an acceptor, DABCYL, near the other end. The fluorescence of the peptide is quenched by […] resonance energy transfer (RET) between the donor and the acceptor, but as the NS3 protease cleaves the peptide the products are released from RET quenching and the fluorescence of the donor becomes apparent. The assay reagent was made as follows: 5× cell Luciferase cell culture lysis reagent from Promega (#E153A) diluted to 1× with dH2O, NaCl added to 150 mM final, the FRET peptide diluted to 20 μM final from a 2 mM stock.
To prepare plates, HCV replicon cells, with or without a Renilla luciferase reporter gene, were trypsinized and placed into each well of a 96-well plate with titrated test compounds added in columns 3 through 12; columns 1 and 2 contained a control compound (HCV protease inhibitor), and the bottom row contained cells without compound. The plates were then placed in a CO2 incubator at 37° C.
Assays. Subsequent to addition of the test compounds described above (FRET Assay Preparation), at various times the plate was removed and Alamar blue solution (Trek Diagnostics, #00-100) was added per well as a measure of cellular toxicity. After reading in a Cytoflour 4000 instrument (PE Biosystems), plates were rinsed with PBS and then used for FRET assay by the addition of 30 ul of the FRET peptide assay reagent described above (FRET Assay Preparation) per well. The plate was then placed into the Cytoflour 4000 instrument which had been set to 340 excite/490 emission, automatic mode for 20 cycles and the plate read in a kinetic mode. Typically, the signal to noise using an endpoint analysis after the reads was at least three-fold. Alternatively, after Alamar blue reading, plates were rinsed with PBS, 50 ul of DMEM (high glucose) without phenol red was added and plates were then used for luciferase assay using the Promega Dual-Glo Luciferase Assay System.
Compound analysis was determined by quantification of the relative HCV replicon inhibition and the relative cytotoxicity values. To calculate cytoxicity values, the average Alamar Blue fluorescence signals from the control wells were set as 100% non-toxic. The individual signals in each of the compound test wells were then divided by the average control signal and multiplied by 100% to determine […]. To calculate the HCV replicon inhibition values, an average background value was obtained from the two wells containing the highest amount of HCV protease inhibitor at the end of the assay period. These numbers were similar to those obtained from naïve Huh-7 cells.
The background numbers were then subtracted from the average signal obtained from the control wells and this number was used as 100% activity. The individual signals in each of the compound test wells were then divided by the averaged control values after background subtraction and multiplied by 100% to determine percent activity. EC50 values for a protease inhibitor titration were calculated as the concentration which caused a 50% reduction in FRET or luciferase activity. The two numbers generated for the compound plate, percent cytoxicity and percent activity were used to determine compounds of interest for further analysis.
The HCV replicon luciferase assay was developed to monitor the inhibitory effects of compounds described in the disclosure on HCV viral replication. Utilization of a replicon luciferase reporter assay was first described by Krieger et al (Krieger N, Lohmann V, and Bartenschlager R, J. Virol. 75(10):4614-4624 (2001)). HUH-7 cells, constitutively expressing the HCV replicon, were grown in Dulbecco's Modified Eagle Media (DMEM) (Gibco-BRL) containing 10% Fetal calf serum (FCS) (Sigma) and 1 mg/ml G418 (Gibco-BRL). […]
For orientation: A replicon is a self-replicating genome or part of one, used to study replication in cells.

T1 sequence (Q9WMX2 2420-2992): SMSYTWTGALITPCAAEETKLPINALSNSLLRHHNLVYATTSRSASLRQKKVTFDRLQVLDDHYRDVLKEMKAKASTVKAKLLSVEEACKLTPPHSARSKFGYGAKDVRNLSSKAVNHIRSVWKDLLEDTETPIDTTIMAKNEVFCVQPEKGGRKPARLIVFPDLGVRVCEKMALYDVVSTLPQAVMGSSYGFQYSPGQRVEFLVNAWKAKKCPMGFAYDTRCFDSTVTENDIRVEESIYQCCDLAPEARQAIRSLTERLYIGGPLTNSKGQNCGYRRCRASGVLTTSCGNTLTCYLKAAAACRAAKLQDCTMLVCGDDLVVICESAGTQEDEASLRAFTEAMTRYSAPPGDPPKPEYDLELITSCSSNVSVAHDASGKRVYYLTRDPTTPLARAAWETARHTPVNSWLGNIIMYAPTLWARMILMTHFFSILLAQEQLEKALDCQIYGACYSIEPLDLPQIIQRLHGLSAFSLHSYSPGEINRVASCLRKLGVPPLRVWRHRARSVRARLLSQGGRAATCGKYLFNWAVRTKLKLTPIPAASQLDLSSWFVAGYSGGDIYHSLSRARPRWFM

A word on the IC50: it is the concentration needed to halve the response being measured. One may read the EC50 as the concentration giving half of the maximal effect. Higher therefore signals a less potent agent. In turn, `CNC(=O)c1c(-c2ccc(F)cc2)oc2ccc(-c3cc(C(=O)NC4(c5ccc6[nH]ccc6n5)CC4)ccc3C)c(F)c12` yielded a 50% inhibitory concentration (IC50) in assay [1] of 20 nM. Further, the 50% effective concentration (EC50) in assay [2] turned out to be 7 nM. The compound `CNC(=O)c1c(-c2ccc(F)cc2)oc2ccc(-c3cc(C(=O)NC4(c5nccc6[nH]ccc56)CC4)ccc3C)c(F)c12` showed an EC50 in assay [2] of 60 nM. `CNC(=O)c1c(-c2ccc(F)cc2)oc2ccc(-c3cc(C(=O)NC4(c5ccc6cccnc6n5)CC4)ccc3C)cc12` returned an IC50 in assay [1] of 3 nM. The compound also gave an EC50 in assay [2] of 40 nM.

As for `CNC(=O)c1c(-c2ccc(F)cc2)oc2ccc(-c3cc(C(=O)NC4(c5ccc6ccncc6n5)CC4)ccc3C)cc12`, in assay [1], it took 5 nM to reach half-maximal inhibition (IC50). This compound also displayed an EC50 in assay [2] of 3 nM.

With `CNC(=O)c1c(-c2ccc(F)cc2)oc2ccc(-c3cc(C(=O)NC4(c5ccc6ccncc6n5)CC4)ccc3C)c(F)c12`, in assay [1], it took 20 nM to reach half-maximal inhibition (IC50). The compound further returned an EC50 in assay [2] of 6 nM.

In assay [1], `CNC(=O)c1c(-c2ccc(F)cc2)oc2ccc(-c3cc(C(=O)NC4(c5ccc6cnccc6n5)CC4)ccc3C)cc12` returned an IC50 of 8 nM. Moreover, the EC50 in assay [2] came out at 2 nM. As for `CNC(=O)c1c(-c2ccc(F)cc2)oc2ccc(-c3cc(C(=O)NC4(c5ccc6ccncc6n5)CC4)cc(F)c3C)c(F)c12`, in assay [1], the IC50 was 10 nM. The compound further showed a half-maximal effective concentration (EC50) in assay [2] of 9 nM. The matching figures for `CNC(=O)c1c(-c2ccc(F)cc2)oc2ccc(-c3cc(C(=O)NC4(c5ccc6cccnc6n5)CC4)cc(F)c3C)c(F)c12`: 10 nM and 70 nM. The corresponding values for `CNC(=O)c1c(-c2ccc(F)cc2)oc2ccc(-c3cc(C(=O)NC4(c5ccc6cnccc6n5)CC4)cc(F)c3C)c(F)c12` are 7 nM and 6 nM.

As to `CNC(=O)c1c(-c2ccc(F)cc2)oc2ccc(-c3cc(C(=O)NC4(c5ccc6ncccc6n5)CC4)ccc3C)c(F)c12`, the midpoint of inhibition in assay [1], the IC50, lay at 10 nM. This compound registered an EC50 in assay [2] of 30 nM. The corresponding values for `CNC(=O)c1c(-c2ccc(F)cc2)oc2ccc(-c3cc(C(=O)NC4(c5ccc6ncccc6n5)CC4)ccc3C)cc12` are 10 nM and 30 nM. The matching figures for `CNC(=O)c1c(-c2ccc(F)cc2)oc2ccc(-c3cc(C(=O)NC4(c5ccc6ccncc6n5)CC4)c(OC)cc3OCC(N)=O)cc12`: 5 nM and 4 nM. The matching figures for `CNC(=O)c1c(-c2ccc(F)cc2)oc2ccc(-c3cc(C(=O)NC4(c5ncc6cnccc6n5)CC4)ccc3C)c(F)c12`: 6 nM and 20 nM. As for `CNC(=O)c1c(-c2ccc(F)cc2)oc2ccc(-c3cc(C(=O)NC4(c5nc6cnccc6o5)CC4)ccc3C)c(F)c12`, it took 20 nM to reach half-maximal inhibition in assay [1] (IC50). In assay [2], this compound had a concentration for a half-maximal effect (EC50) of 4 nM.

In assay [1], `CNC(=O)c1c(-c2ccc(F)cc2)oc2ccc(-c3cc(C(=O)NC4(c5nc6cnccc6o5)CC4)c(OC)cc3C)c(F)c12` came in with a half-inhibitory concentration (IC50) of 40 nM. Moreover, the EC50 in assay [2] was 1 nM. The compound `CNC(=O)c1c(-c2ccc(F)cc2)oc2ccc(-c3cc(C(=O)NC4(c5nc6cnccc6o5)CC4)ccc3C)cc12` came in with an IC50 in assay [1] of 20 nM. Also, the midpoint of the response in assay [2], the EC50, lay at 1 nM. In assay [1], `CNC(=O)c1c(-c2ccc(F)cc2)oc2ccc(-c3cc(C(=O)NC4(c5nc6cnccc6o5)CC4)c(OC)cc3C)cc12` registered an IC50 of 10 nM. Moreover, in assay [2], it took 1 nM to reach a half-maximal effect (EC50).

`CNC(=O)c1c(-c2ccc(F)cc2)oc2ccc(-c3cc(C(=O)N[C@@H](C)c4nc5cnccc5o4)c(OC)cc3C)c(F)c12` displayed an IC50 in assay [1] of 60 nM. In assay [2], the concentration for a half-maximal effect (EC50) is 20 nM. `CNC(=O)c1c(-c2ccc(F)cc2)oc2ccc(-c3cc(C(=O)N[C@H](C)c4nc5cnccc5o4)c(OC)cc3C)c(F)c12` registered an IC50 in assay [1] of 40 nM. Moreover, a half-maximal effect in assay [2] (EC50) was put at 10 nM. The matching figures for `CNC(=O)c1c(-c2ccc(F)cc2)oc2ccc(-c3cc(C(=O)NC4(c5nc6ccncc6o5)CC4)c(OC)cc3C)c(F)c12` [4-fluoro-2-(4-fluorophenyl)-5-(4-methoxy-2-methyl-5-(1-(oxazolo[5,4-c]pyridin-2-yl)cyclopropylcarbamoyl)phenyl)-N-methylbenzofuran-3-carboxamide]: 20 nM and 4 nM. The matching figures for `CNC(=O)c1c(-c2ccc(F)cc2)oc2ccc(-c3cc(C(=O)NC4(c5nc6cnccc6o5)CC4)cc(F)c3C)c(F)c12` [4-fluoro-5-(3-fluoro-2-methyl-5-(1-(oxazolo[4,5-c]pyridin-2-yl)cyclopropylcarbamoyl)phenyl)-2-(4-fluorophenyl)-N-methylbenzofuran-3-carboxamide]: 20 nM and 6 nM.

For `CNC(=O)c1c(-c2ccc(F)cc2)oc2ccc(-c3cc(C(=O)NC4(c5nc6cnccc6o5)CC4)cc(F)c3C)cc12` [5-(3-fluoro-2-methyl-5-(1-(oxazolo[4,5-c]pyridin-2-yl)cyclopropylcarbamoyl)phenyl)-2-(4-fluorophenyl)-N-methylbenzofuran-3-carboxamide], the IC50 in assay [1] worked out at 20 nM. For the same compound, it took 3 nM to reach a half-maximal effect in assay [2] (EC50).

These data come from patent US8354410B2 (Bristol-Meyers Squibb Company, priority 2010, dated 2013).
